Data reported in patent EP4631938A1, “NITROGEN-CONTAINING HETEROCYCLE WITH SEROTONIN RECEPTOR-BINDING ACTIVITY AND CARBOCYCLIC DERIVATIVE” (Shionogi & Co., Ltd, priority 2022, dated 2024).
Where two headings read alike, the source gives them in different places.

Key:
CYP3A4 = target: T1, CYP3A4 (Homo sapiens, UniProt P08684); assay: Test Example 8: CYP3A4 (MDZ) MBI test; format: in vitro ADME; settings: pooled human liver microsomes; substrate 10 µmol/L MDZ; pre-reaction 0 or 30 minutes; compound 0.83, 5, 10, 20 µmol/L
T1 construct: pooled human liver microsomes by 1-hydroxylation reaction of midazolam (MDZ) as a marker reaction; from tissue; host or cells: pooled human liver microsomes
Protocol: CYP3A4 (MDZ) MBI test is a test of investigating MBI potential on CYP3A4 by the enhancement of inhibitory degree of a metabolic reaction caused by the compound of the present invention. CYP3A4 inhibition is evaluated using pooled human liver microsomes by 1-hydroxylation reaction of midazolam (MDZ) as a marker reaction.
The reaction conditions are as follows: substrate, 10 µmol/L MDZ; pre-reaction time, 0 or 30 minutes; substrate reaction time, 2 minutes; reaction temperature, 37°C; pooled human liver microsomes, at pre-reaction 0.5 mg/mL, at reaction 0.05 mg/mL (at 10-fold dilution); concentrations of the compound of the present invention, at pre-reaction 0.83, 5, 10, 20 µmol/L (4 points).
Pooled human liver microsomes and a solution of the compound of the present invention in K-Pi buffer (pH 7.4) as a pre-reaction solution are added to a 96-well plate at the composition of the pre-reaction. A part of pre-reaction solution is transferred to another 96-well plate, and diluted 10-fold by K-Pi buffer containing a substrate. NADPH as a cofactor is added to initiate a reaction as a marker reaction (without preincubation). After a predetermined time of the reaction, methanol/acetonitrile=1/1 (V/V) solution is added to stop the reaction. NADPH is also added to the remaining pre-reaction solution to initiate the pre-reaction (with pre-reaction), and after the pre-reaction for a predetermined time, a part is transferred to and diluted 10-fold by K-Pi buffer containing a substrate to initiate the reaction as a marker reaction. After a predetermined reaction time, the reaction is stopped by adding a methanol/acetonitrile = 1/1 (V/V) solution. Each plate where the indicator reaction has been performed is centrifuged at 3000 rpm for 15 minutes. Then, midazolam 1-hydroxide in the centrifuged supernatant is quantified by LC/MS/MS.
The sample adding DMSO as a solvent to a reaction system instead of a solution dissolving the compound of the present invention is adopted as a control (100 %). Remaining activity (%) is calculated at each concentration of the compound of the present invention compared to a control, and IC value is calculated by reverse-presumption by a logistic model using a concentration and an inhibition rate. Shifted IC value is calculated as "IC of preincubation at 0 minutes/ IC of preincubation at 30 minutes". When a shifted IC is 1.5 or more, this is defined as positive. When a shifted IC is 1.0 or less, this is defined as negative.

[1] = target: T2, human recombinant 5-HT2A receptor (Homo sapiens, UniProt P28223); assay: Test Example 1: 5-HT2A receptor binding inhibition test ([3H]-Ketanserin; non-specific ligand Serotonin HCl)
T2 construct: expressed in transfected cells; host or cells: Jump-In HEK cells (membrane preparation)
Protocol: The Kd value is calculated when the lot of the cell membrane is changed. 1 mmol/L non-specific binding calculating compound dissolved in DMSO or DMSO is previously dispensed to the microplate by 0.5 µL, and the cell membrane is diluted with an Assay buffer. The radioactive ligand solution is diluted step by step, and counts are checked with a liquid scintillator. The Assay buffer containing diluted cell membranes is dispensed by 50 µL/well into the microplate. The radioactive ligand solution is then dispensed by 50 µL/well into the microplate and the plate is sealed. The microplate is allowed to stand for 1.5 hours at room temperature (25°C). During this time, 50 mmol/L Tris-HCl (pH 7.4) is dispensed by 50 µL/well on the GF/B UniFilter plate and allowed to stand at 4°C for 1 hour or longer. Thereafter, filtration is performed with a Cell Harvester (PerkinElmer). The radioactive ligand solution is dispensed by 10 µL/well into empty wells of the GF/B UniFilter plate. After drying the GF/B UniFilter plate at room temperature, MicroScinti20 is dispensed by 50 µL/well into the GF/B UniFilter plate, and the plate is sealed. GF/B UniFilter plate is allowed to stand at room temperature overnight. The radioactivity of [^3H]-Ketanserin bound to the 5-HT2A receptor is measured using Microbeta2 (PerkinElmer) at a measurement time of 1 min/well. The Saturation curve is drawn from the measured value, and the Kd value is calculated from the slope of the Scatchard Plot.
A compound solution dissolved in DMSO is dispensed to a microplate by 0.5 µL, and a cell membrane and a hot ligand are each diluted with an Assay buffer. The Assay buffer containing diluted cell membrane is then dispensed by 50 µL/well into the microplate. The radioactive ligand solution is then dispensed by 50 µL/well into the microplate and the plate is sealed. Thereafter, the microplate is allowed to stand at room temperature (25°C) for 1.5 hours. During this time, 50 mmol/L Tris-HCl (pH 7.4) is dispensed by 50 µL/well into the GF/B UniFilter plate and allowed to stand at 4°C for 1 hour or longer. Thereafter, filtration is performed with a Cell Harvester (PerkinElmer). After drying the GF/B UniFilter plate at room temperature, MicroScinti20 is dispensed by 50 µL/well into the GF/B UniFilter plate, and the plate is sealed. GF/B UniFilter plate is allowed to stand at room temperature overnight. The radioactivity of [^3H]-Ketanserin bound to the 5-HT2A receptor is measured using Microbeta2 (PerkinElmer) at a measurement time of 1 min/well. Non-specific binding is calculated from the radioactivity of [^3H]-Ketanserin in the presence of 500 µmol/L Serotonin HCl of unlabeled ligand, and total binding is calculated from the radioactivity of [^3H]-Ketanserin in the absence of the compound of the present invention (Vehicle). Finally, the Ki value is calculated from the dose-response curve.
(The binding activity of the compound according to the present invention is calculated from the following binding inhibition rate (%).) Inhibition rate (%) = [1−(c−a)/(b−a)] × 100 [formula] • a; average cpm of non-specific binding • b; average cpm of total binding • c; cpm in the presence of the test compound
The compounds of the present invention were tested essentially as described above.

T1 sequence (P08684 whole entry): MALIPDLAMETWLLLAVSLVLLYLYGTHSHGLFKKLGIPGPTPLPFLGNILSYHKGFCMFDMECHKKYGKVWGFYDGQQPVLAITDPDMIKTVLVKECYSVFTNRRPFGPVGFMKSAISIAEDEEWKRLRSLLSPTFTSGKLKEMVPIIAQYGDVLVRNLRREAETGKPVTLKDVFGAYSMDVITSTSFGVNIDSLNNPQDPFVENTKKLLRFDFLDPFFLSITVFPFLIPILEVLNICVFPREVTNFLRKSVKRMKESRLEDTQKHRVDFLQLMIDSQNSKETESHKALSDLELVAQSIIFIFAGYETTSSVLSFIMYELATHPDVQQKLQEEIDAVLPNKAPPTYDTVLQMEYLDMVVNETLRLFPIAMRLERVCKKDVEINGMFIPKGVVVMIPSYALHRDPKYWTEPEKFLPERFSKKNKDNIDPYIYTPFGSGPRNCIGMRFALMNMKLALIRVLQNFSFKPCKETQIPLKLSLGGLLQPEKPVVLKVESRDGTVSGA
T2 sequence (P28223 whole entry): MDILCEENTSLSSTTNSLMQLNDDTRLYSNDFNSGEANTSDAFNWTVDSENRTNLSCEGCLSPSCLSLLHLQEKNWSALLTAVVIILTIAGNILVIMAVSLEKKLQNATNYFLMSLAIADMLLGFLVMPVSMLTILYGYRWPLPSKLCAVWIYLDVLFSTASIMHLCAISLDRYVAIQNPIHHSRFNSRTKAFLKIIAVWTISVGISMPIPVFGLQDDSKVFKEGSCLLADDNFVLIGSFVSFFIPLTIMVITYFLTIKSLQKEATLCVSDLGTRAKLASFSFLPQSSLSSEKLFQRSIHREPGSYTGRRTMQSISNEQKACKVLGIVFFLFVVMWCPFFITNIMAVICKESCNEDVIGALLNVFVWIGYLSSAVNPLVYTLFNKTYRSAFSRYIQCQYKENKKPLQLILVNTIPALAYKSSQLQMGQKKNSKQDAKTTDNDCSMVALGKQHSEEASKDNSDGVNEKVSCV

SMILES | CYP3A4 (MDZ) MBI (shifted IC: IC of preincubation at 0 minutes/ IC of preincubation at 30 minutes) (CYP3A4) | also measured
COCc1nc(C)c(-c2cc(Nc3ncc(OC(F)(F)F)cc3Cl)ncc2OCCO)c(C)n1 [Compound I-200] | Negative (When a shifted IC is 1.0 or less, this is defined as negative) | 
Cn1ncc(F)c1-c1cc(Nc2ncc(C(F)(F)F)cc2F)cnc1OCCO [Compound I-127] | Negative (When a shifted IC is 1.0 or less, this is defined as negative) | 
Cc1nc(CO[C@@H]2CCOC2)nc(C)c1-c1cc(Nc2ncc(C(F)(F)F)cc2Cl)ncc1OCCO [Compound I-378] | Negative (When a shifted IC is 1.0 or less, this is defined as negative) | 
Cn1ncc(Br)c1-c1cc(Nc2ncc(C(F)(F)F)cc2F)ccc1OCCO [Compound I-006] |  | Ki [1]: 0.317 nM
Cc1cnn(C)c1-c1cc(Nc2ncc(C(F)(F)F)cc2F)ccc1OCCO [Compound I-008] |  | Ki ([1]; [3H]-Ketanserin, non-specific binding with 500 µmol/L Serotonin HCl, room temperature (25°C), 1.5 hours, read-out: h 5-HT2A Ki): 0.344 nM
Cc1nc(COC2COC2)nc(C)c1-c1cc(Nc2ncc(C(F)(F)F)cc2Cl)ncc1OCCO [Compound I-376] | Negative (When a shifted IC is 1.0 or less, this is defined as negative) | 
COCc1nc(C)c(-c2nc(Nc3ccc(C(F)(F)F)c(C)n3)c(F)cc2OCCO)c(C)n1 [Compound I-247] | Negative (When a shifted IC is 1.0 or less, this is defined as negative) | 
